Legend:
[1] = tested on: COVID-19 patient's PBMC; details: cited from earlier work
[2] = Immunogenicity of NeoAgs screened by Deepomics algorithm

| Sequence | induction of T cell responses [1] | immunogenic characteristics of NeoAgs [2] |
| --- | --- | --- |
| TRFQTLLALHRSYLT (SEQ ID NO: 10) [Spike S236-250 peptide] | able to induce T cell responses |  |
| HRAERPFPEED (SEQ ID NO: 1) (listed as Mus sp.) [MT4-1] |  | poorly immunogenic |
| GVRAALPTPR (SEQ ID NO: 4) (listed as Mus sp.) [MT4-7] |  | poorly immunogenic |
| LTPSFPVSP (SEQ ID NO: 2) (listed as Mus sp.) [MT4-2] |  | poorly immunogenic |
| QAGPVLPTSLE (SEQ ID NO: 5) (listed as Mus sp.) [MT4-8] |  | poorly immunogenic |
| RVGGHLRLSGQ (SEQ ID NO: 3) (listed as Mus sp.) [MT4-6] |  | poorly immunogenic |

From patent US20230132140A1, “METHOD OF TREATING CANCER” (Celloram Inc., priority 2021, published 2023)
